Key:
[1] = tested on: immobilized Vn binding to S. epidermidis strain BD5703; assay: Inhibition test: binding of 3H-labeled bacteria to Vn coated wells; assay type: cell-based, Staphylococcus epidermidis; details: for Effect on BD5703 binding of immobilized Vn (in words): component added at the same time as bacteria
Description: (§1) ^3H-labeled bacteria were used for these tests. In brief, half a milliliter of an overnight cultured bacteria in TH broth was diluted in 5 ml TH broth containing 50 μCi of [methyl-^3H]thymidine (Amersham Plc., Buckinghamshire, UJK) and cultured for 5 hours at 37° C. on a gyrator shaker with vigorous agitation.
In another experiment, 50 μl bacteria (2×10^7cfu/ml) were mixed with the same volume of four mono-carbohydrates (0.1M D-fucose, 0.1M D-galactose, 0.1M D-glucose and 0.1M D-mannose), heparin (2 mg/ml), hyaluronic acid (2 mg/ml) or Vn (20 μg/ml). These mixtures with bacteria were incubated for 1 hour at 37° C. Heparin sodium salt and hyaluronic acid were purchased from Fluka Chemie AG, Buchs, Switzerland)
(§2) Finally, all wells were washed by PBS 5 times, individual wells were removed and immersed in 2.5 ml scintillation fluid (BDH chemicals, Pool, UK) and the radioactivity was counted in a liquid scintillation counter (Beckman Instruments, Fullerton, Calif., USA). Quantitation of relative binding percentage was achieved by the radioactivity from experimental groups in relation to the radioactivity from non-treated group.

[2] = tested on: 16 kDa protein of BD5703; assay: Autoradiograph inhibition test: labeled Vn binding to blotted surface proteins; design: species or system Staphylococcus epidermidis; details: competing proteins 10 μg/ml; heparin, hyaluronic acid 1 mg/ml; autoradiography
Description: (§3) SDS-PAGE was performed on mini-Protean II cell (Bio-Rad, Richmond, Calif.) as previously described (16). The bacterial surface structures were extracted by 1M lithium chloride (pH 5) with protease inhibitor (Boehringer Mannheim, Mannheim, Germany) at 37° C. for 2 hours with end to end rotation. Extract was subjected to homogenous gel (12%) or gradient gel (4-15%) electrophoresis. The running and transfer conditions were as previously described (17).
(§4) The PDVF membranes (Micron Separations INC., Westborough, USA) were saturated with incubation in blocking buffers I and II (buffer I containing 0.6% ethanolamine, 0.9% glycine, 1% polyvinylpyrrolidone and 25% methanol pH 9.6; buffer II containing 0.6% ethanolamine, 0.9% glycine, 0.05% gelatin hydrolysate and 0.125% Tween 20 pH 9.6) for 15 min respectively (18). Saturated membranes were rinsed three times in PBST (PBS with 1% Tween 20). Then, the membranes were incubated with ^125I-labeled Vn (0.4 μg/ml) in PBST or in PBST supplemented with 1.05 M sodium chloride (final sodium chloride concentration 1.2M) overnight at 20° C. The membranes were washed and dried, then examined by autoradiography with X-Omat AR film (Eastman Kodak) after 3 days storage at −70° C.
(§5) For inhibition tests, the membrane with retained bacterial surface molecules was cut to individual strips, and then incubated with labeled Vn (0.4 μg/ml) in PBST mixed with different unlabeled competing molecules, including Vn (10 μg/ml), fibronectin (10 μg/ml), fibrinogen (10μg/ml), thrombospondin ([…]), plasminogen (10 μg/ml), human immunoglobulins (10 μg/ml), hemopexin (10 μg/ml), heparin (1 mg/ml). In a separate experiment, the strips were preincubated with heparin (1 mg/ml) and hyaluronic acid (1 mg/ml) for 1 hour at 20° C. prior to adding labeled Vn.

[3] = tested on: 21 kDa protein of BD5703; assay: as above; design: species or system Staphylococcus epidermidis; details: competing proteins 10 μg/ml; heparin, hyaluronic acid 1 mg/ml; autoradiography
Description: as §3, §4, §5

[4] = tested on: 38 kDa protein of BD5703; assay: as above; design: species or system Staphylococcus epidermidis; details: competing proteins 10 μg/ml; heparin, hyaluronic acid 1 mg/ml; autoradiography
Description: as §3, §4, §5

[5] = tested on: 52 kDa protein of BD5703; assay: as above; design: species or system Staphylococcus epidermidis; details: competing proteins 10 μg/ml; heparin, hyaluronic acid 1 mg/ml; autoradiography
Description: as §3, §4, §5

[6] = tested on: immobilized Vn binding to S. epidermidis strain BD5703; assay: Inhibition test: binding of 3H-labeled bacteria to Vn coated wells; assay type: cell-based, Staphylococcus epidermidis
[7] = tested on: BD5703 surface proteins; assay: Autoradiograph inhibition test: labeled Vn binding to blotted surface proteins; design: species or system Staphylococcus epidermidis; details: unlabeled Vn 10 μg/ml; autoradiography
Description: as §3, §4, §5

[8] = tested on: S. aureus strain V8; assay: Bacterial binding of soluble 125I-labeled Vn; design: species or system Staphylococcus aureus; details: reference strain V8
Description: (§6) Fifty micrograms of Vn was labeled with Na ^125I (Amersham Plc., Buckinghamshire, UK) using the modified chloramine-T method (specificity, 1×10^6 cpm/μg), and used in a minor modified soluble binding test with final reaction volume of 150 μl in PBS (15). During binding experiments, radiolabeled protein were diluted to approx. 0.025 μg (25,000cpm) and incubated with bacteria (10^9 cells per test tube). In an alternative method, cells of BD5703 were immobilized on ELISA plates (Costar Co., Cambridge, USA) by incubating 100 μl of bacterial suspension (2×10^7 cells in PBS) for 30 min at 37° C. Non-attached bacteria were removed by 3 washes with PBS. The remaining sites on the plastic were blocked by 2%, a bovine serum albumin in PBS (BSA-PBS) for 1 hour at 37° C. The wells were washed with PBS, and two-fold diluted ^125I-labeled Vn in 1% BSA-PBS (maximally 5 μg/ml) was added. Wells coated with 1% BSA served as background. After incubation at 37° C. for 45 min and washes with PBS, individual wells were removed and the radioactivity was measured in a gamma counter (LKB-Wallac, Turku, Finland).

[9] = tested on: S. epidermidis strain BD5703; assay: Bacterial binding of soluble 125I-labeled Vn; design: species or system Staphylococcus epidermidis; details: less than 5% is considered as negative binding
Description: as §6

[10] = tested on: immobilized S. epidermidis strain BD5703; assay: Binding of soluble 125I-labeled Vn to cells immobilized on ELISA plate wells; design: species or system Staphylococcus epidermidis; details: two-fold diluted 125I-Vn, maximally 5 μg/ml; FIG. 1
Description: as §6

[11] = tested on: S. epidermidis BD5703; assay: Proteolytic treatment of bacterial cells, binding of immobilized Vn; assay type: cell-based, Staphylococcus epidermidis; details: BD5703 cells treated with protease; non-treated control = 100
Description: as §1
(§7) 3H-labeled bacteria cells (5×10^8) were suspended in 1 ml PBS heated at 100° C. for 30 min and rapidly cooled. The same amount of bacteria was treated by pronase E, protease K and trypsin (Sigma Chemical Co., St. Louis, USA) as previously described (15). After washes in PBS, 100 μl (1×10^7 cells) treated bacterial suspension were added into the Vn coated wells.
as §2

[12] = tested on: S. aureus V8; assay: as above; assay type: cell-based, Staphylococcus aureus; details: V8 cells treated with protease; non-treated control = 100
Description: as §1, §7, §2

[13] = tested on: immobilized Vn; assay: Trypsin treatment of Vn-coated wells, binding assay with 3H labeled bacteria; assay type: cell-based; details: trypsin 2 μg/well, 37° C. for 2 hours
Description: The wells pre-adsorbed with Vn were trypsinized at a concentration of 2 μg/well in PBS with 1 mM CaCl2 (37° C. for 2 hours) following an additional incubation with soybean trypsin inhibitor (4 μg/well) at 37° C. for 30 min in same buffer (15). The wells were then blocked by BSA and subjected to binding assay with ^3H labeled bacteria.

[14] = inhibitor 1 mg/ml, added at the same time as bacteria

C[C@@H](O)[C@H](O)[C@H](O)[C@@H](O)C=O [D-fucose]
Effect on BD5703 binding of immobilized Vn (in words) [1]: not by carbohydrates

O=C[C@H](O)[C@@H](O)[C@@H](O)[C@H](O)CO [D-galactose]
Effect on BD5703 binding of immobilized Vn (in words) [1]: not by carbohydrates

O=C[C@H](O)[C@@H](O)[C@H](O)[C@H](O)CO [D-glucose]
Effect on BD5703 binding of immobilized Vn (in words) [1]: not by carbohydrates

O=C[C@@H](O)[C@@H](O)[C@H](O)[C@H](O)CO [D-mannose]
Effect on BD5703 binding of immobilized Vn (in words) [1]: not by carbohydrates

Heparin sodium salt [Heparin 1]
Inhibitory ability compared to hyaluronic acid ([1]; added at the same time as bacteria): more than 2 fold
Effect on BD5703 binding of immobilized Vn (in words) [1]: reduced significantly
Relative binding percentage [1, 14]: 18%
Inhibition of labeled Vn binding to the 16 kDa band [2]: almost erase
Inhibition of labeled Vn binding to the 21 kDa band [3]: not 21 kDa
Inhibition of labeled Vn binding to the 38 kDa band [4]: almost erase
Inhibition of labeled Vn binding to the 52 kDa band [5]: almost erase
Effect on BD5703 binding of immobilized Vn (in words) ([6]; component preincubated with Vn coated wells): increased the binding
Relative binding percentage ([6]; inhibitor 1 mg/ml, preincubated with Vn coated wells for 2 hours, then bacteria added): 135%

Soluble Vn: human vitronectin, purified; glycoprotein; also used 125I-labeled
Relative binding percentage ([1]; inhibitor 10 μg/ml, added at the same time as bacteria, control without inhibitor = 100): 40%
Inhibition of binding of immobilized Vn ([1]; soluble Vn added with bacteria): about 60%
Inhibition of binding of labeled Vn to BD5703 surface proteins [7]: could be inhibited
Level of binding of radioactively labeled Vn in solution [8]: 14.2%
Level of binding of radioactively labeled Vn in solution [9]: more than 5%
Binding of 125I-Vn to immobilized cells [10]: dose-related manner

Trypsin
Relative percentage binding of immobilized Vn [11]: 67%
Relative percentage binding of immobilized Vn [12]: 70%
Bacterial binding after trypsin treatment of immobilized Vn [13]: no binding was obtained

fibrinogen
Inhibition of labeled Vn binding to the 16 kDa band [2]: slightly blocked
Inhibition of labeled Vn binding to the 38 kDa band [4]: slightly blocked
Inhibition of labeled Vn binding to the 52 kDa band [5]: slightly blocked

fibronectin
Inhibition of labeled Vn binding to the 16 kDa band [2]: slightly blocked
Inhibition of labeled Vn binding to the 38 kDa band [4]: slightly blocked
Inhibition of labeled Vn binding to the 52 kDa band [5]: slightly blocked

hemopexin: human hemopexin, purified
Inhibition of labeled Vn binding to the 16 kDa band [2]: slightly blocked
Inhibition of labeled Vn binding to the 38 kDa band [4]: slightly blocked
Inhibition of labeled Vn binding to the 52 kDa band [5]: slightly blocked

hyaluronic acid
Effect on BD5703 binding of immobilized Vn (in words) [1]: reduced significantly
Relative binding percentage [1, 14]: 41%
Inhibition of labeled Vn binding to the 38 kDa band [4]: inhibited
Inhibition of labeled Vn binding to the 52 kDa band [5]: inhibited

plasminogen: human plasminogen from Sigma
Inhibition of labeled Vn binding to the 16 kDa band [2]: slightly blocked
Inhibition of labeled Vn binding to the 38 kDa band [4]: slightly blocked
Inhibition of labeled Vn binding to the 52 kDa band [5]: slightly blocked

thrombospondin: human thrombospondin
Inhibition of labeled Vn binding to the 16 kDa band [2]: slightly blocked
Inhibition of labeled Vn binding to the 38 kDa band [4]: slightly blocked
Inhibition of labeled Vn binding to the 52 kDa band [5]: slightly blocked

Source: patent US20030082200A1, “52 kda protein from coagulase negative staphylococci and fragments thereof” (priority 2000, published 2003)
